# Experimental data published in paper PMC10326086 (Cancer Chemotherapy and Pharmacology, 2023).
# Where two headings read alike, the source gives them in different places.
# Tests used:
# [1] = tested on: QTc interval; details: in vivo; cited from earlier work
# [2] = tested on: ECG intervals in patients with advanced solid tumors; assay: Digital 12-lead ECG (dECG) assessments, time-matched change from baseline; details: over the treatment period (days 1–3, 24 h post-dose)
# Procedure: (§1) On day − 2, patients underwent dECG to determine eligibility by central review. On day − 1, baseline dECG assessments were performed at clock times matched to the planned/scheduled dECG assessment times on days 1 and 3. […] Doses were administered under fasting conditions (2 h pre-dose to 2 h post-dose), with prescribed anti-emetic(s) given orally 30 min prior to each dose [20].
# (§2) Patients had their final dECG/PK assessments on day 4, 24 h post-dose. Baseline for dECG assessments was defined as the time-matched observation on day − 1. Triplicate dECG recordings were taken within an approximate 5-min period prior to PK sample collection and as close to the scheduled times as possible. Patients rested for ≥ 10 min prior to dECG recording and were in the same supine body position for all recordings. HR and RR, QT, PR, and QRS interval parameters were recorded. Standardized equipment was provided by the central ECG laboratory. Recorded dECGs were sent to the central ECG laboratory for review and interpretation, using their standard operating procedures and with manual adjudication (3 beat on lead II).
# [3] = tested on: patients with advanced solid tumors; assay: Safety and tolerability (adverse events, CTCAE version 4.03); details: n = 21
# Source text: (§3) Safety was appraised throughout the study by the assessment of adverse events (AEs; graded by Common Terminology Criteria for Adverse Events [CTCAE], version 4.03), physical examination, and evaluation of vital signs, ECG, and laboratory data (clinical chemistry and hematology). Dose reductions were not allowed.
# [4] = tested on: patients with advanced solid tumors; details: human, in vivo
# Source text: as §3
# [5] = Plasma pharmacokinetics of adavosertib
# [6] = tested on: patients with advanced solid tumors; details: cited from earlier work
# [7] = design: method as in doi:10.1158/1538-7445.am2019-ct012; details: after 200 mg bid dosing; cited from earlier work
# [8] = tested on: patients; design: method as in AstraZeneca, data on file, 2022; details: preliminary data; ref AstraZeneca, data on file, 2022; cited from earlier work
# [9] = tested on: ECG intervals in patients with advanced solid tumors; details: human, in vivo
# Procedure: as §1, §2
# [10] = tested on: QTcF interval in patients with advanced solid tumors; details: human, in vivo
# Source text: Estimates were made of the mean change in QTcF at the geometric mean Cmax on days 1 and 3 from the fitted model, with corresponding 90% two-sided confidence intervals (CIs).
# [11] = human, in vivo, 225 mg, 2.5 days
smiles,measurement,setting,value
CN[C@H]1CC[C@@H](c2ccc(Cl)c(Cl)c2)c2ccccc21 [sertraline],Risk of TdP,[1],conditional risk of TdP
C=CCn1c(=O)c2cnc(Nc3ccc(N4CCN(C)CC4)cc3)nc2n1-c1cccc(C(C)(C)O)n1 [adavosertib],Patients with QTcF > 450 ms,[2],No patient
same,Patients with increase in QTcF of > 60 ms,[2],No patient
same,AEs with an outcome of death,[3],No AEs with an outcome of death
same,Causally related AEs of any grade: Anemia,[4],1 (4.8) Number of patients (%)
same,Causally related AEs of any grade: Constipation,[4],1 (4.8) Number of patients (%)
same,Causally related AEs of any grade: Decreased appetite,[4],1 (4.8) Number of patients (%)
same,Causally related AEs of any grade: Diarrhea,[4],6 (28.6) Number of patients (%)
same,Causally related AEs of any grade: Vomiting,[4],2 (9.5) Number of patients (%)
same,Causally related grade ≥3 AEs: Anemia,[4],1 (4.8) Number of patients (%)
same,Causally related grade ≥3 AEs: Constipation,[4],0 Number of patients (%)
same,Causally related grade ≥3 AEs: Decreased appetite,[4],0 Number of patients (%)
same,Causally related grade ≥3 AEs: Diarrhea,[4],1 (4.8) Number of patients (%)
same,Causally related grade ≥3 AEs: Nausea,[4],1 (4.8) Number of patients (%)
same,Causally related grade ≥3 AEs: Vomiting,[4],1 (4.8) Number of patients (%)
same,Causally related AEs of any grade: Any AE,[4]; 2.5 days,11 (52.4) Number of patients (%)
same,Causally related AEs of any grade: Nausea,[4]; 2.5 days,6 (28.6) Number of patients (%)
same,Causally related grade ≥3 AEs: Any AE,[4]; 2.5 days,2 (9.5) Number of patients (%)
same,Patients who discontinued treatment because of AEs,[4]; 2.5 days,9.5%
same,Patients with AEs,[4]; 2.5 days,76.2%
same,Patients with CTCAE grade 3 anemia,[4]; 2.5 days,4.8%
same,Patients with CTCAE grade 3 diarrhea,[4]; 2.5 days,4.8%
same,Patients with CTCAE grade 3 hypotension,[4]; 2.5 days,4.8%
same,Patients with CTCAE grade 3 nausea,[4]; 2.5 days,4.8%
same,"Patients with a serious AE (vomiting, not considered drug related)",[4]; 2.5 days,4.8%
same,Patients with diarrhea (any causality),[4]; 2.5 days,33.3%
same,Patients with nausea (any causality),[4]; 2.5 days,33.3%
same,Patients with treatment-related AEs,[4]; 2.5 days,52.4%
same,Patients with treatment-related anemia,[4]; 2.5 days,4.8%
same,Patients with treatment-related constipation,[4]; 2.5 days,4.8%
same,Patients with treatment-related decreased appetite,[4]; 2.5 days,4.8%
same,Patients with treatment-related diarrhea,[4]; 2.5 days,28.6%
same,Patients with treatment-related nausea,[4]; 2.5 days,28.6%
same,Patients with treatment-related vomiting,[4]; 2.5 days,9.5%
same,Patients with vomiting (any causality),[4]; 2.5 days,23.8%
same,Total number of treatment-related AEs,[4]; 2.5 days,17
same,"CLss/F, arithmetic mean (SD)",[5]; day 3,43.2 L/h
same,"CLss/F, median",[5]; day 3,41.5 L/h
same,"AUC0–12, median","[5]; human, in vivo",5.383 µM·h
same,"Cavg, arithmetic mean (SD)","[5]; human, in vivo",944.8 nM
same,"Cavg, geometric mean","[5]; human, in vivo",901.2 nM
same,"Cavg, median","[5]; human, in vivo",898.9 nM
same,"Cmin, arithmetic mean (SD)","[5]; human, in vivo",517.7 nM
same,"Cmin, geometric mean","[5]; human, in vivo",410.4 nM
same,"Cmin, median","[5]; human, in vivo",499.0 nM
same,Tmax,"[5]; human, in vivo",3 h
same,"tmax, median","[5]; human, in vivo",2.5 h
same,Accumulation for AUC0–12 over 2.5 days of bid dosing,[5]; [11],approximately 2.3 fold
same,Accumulation for Cmax over 2.5 days of bid dosing,[5]; [11],~2.1 fold
same,AUC(0-t),"[5]; human, in vivo, AUC0–12, arithmetic mean (SD)",11.3 µM·h
same,AUC(0-t),"[5]; human, in vivo, AUC0–12, median",10.6 µM·h
same,Cmax,"[5]; human, in vivo, arithmetic mean (SD)",1500 nM
same,Cmax,"[5]; human, in vivo, median",1520 nM
same,AUC(0-t),"[5]; human, in vivo, po, 225 mg, AUC0–12, geometric mean",4.94 µM·h
same,Dose proportionality of exposure,"[6]; qd dosing, between 200 and 300 mg, single and multiple doses, preliminary",exposure increased more than dose proportionally
same,Maximum tolerated dose,[6]; twice daily (bid) over 2.5 days per week per 21-day cycle,225 mg
same,AUC0–12,[7],8.1 µM·h
same,Adverse drug reactions to adavosertib monotherapy,[8],include QTc prolongation
same,"Mean change in HR, range over time points",[9]; 1 day,− 1.7 to 2.9
same,"Mean change in PR interval, range over time points",[9]; 1 day,− 4.4 to 3.5
same,"Mean change in QRS interval, range over time points",[9]; 1 day,− 1.2 to 1.4
same,"Mean change in RR interval, range over time points",[9]; 1 day,− 38.0 to 22.3
same,Patients with QTcF increase > 60 ms at any time during treatment,[9]; 1 day,0 n (%)
same,Patients with QTcF value > 450 ms and increase > 30 ms,[9]; 1 day,0 n (%)
same,Patients with QTcF value > 450 ms at any time during treatment,[9]; 1 day,0 n (%)
same,Patients with QTcF value > 480 ms at any time during treatment,[9]; 1 day,0 n (%)
same,Patients with QTcF value > 500 ms and increase > 60 ms,[9]; 1 day,0 n (%)
same,Patients with QTcF value > 500 ms at any time during treatment,[9]; 1 day,0 n (%)
same,"Mean change in HR, range over time points",[9]; 3 day,1.4 to 9.5 bpm
same,"Mean change in PR interval, range over time points",[9]; 3 day,− 4.4 to 0.3
same,"Mean change in QRS interval, range over time points",[9]; 3 day,− 1.8 to − 2.0
same,"Mean change in RR interval, range over time points",[9]; 3 day,− 102.5 to − 30.4
same,Patients with QTcF increase > 30 ms at any time during treatment,[9]; 3 day,1 (4.8) n (%)
same,Patients with QTcF increase > 60 ms at any time during treatment,[9]; 3 day,0 n (%)
same,Patients with QTcF value > 450 ms and increase > 30 ms,[9]; 3 day,0 n (%)
same,Patients with QTcF value > 450 ms at any time during treatment,[9]; 3 day,0 n (%)
same,Patients with QTcF value > 480 ms at any time during treatment,[9]; 3 day,0 n (%)
same,Patients with QTcF value > 500 ms and increase > 60 ms,[9]; 3 day,0 n (%)
same,Patients with QTcF value > 500 ms at any time during treatment,[9]; 3 day,0 n (%)
same,"Day effect estimate, concentration–ΔQTcF model",[10],−1.6
same,"Intercept estimate, concentration–ΔQTcF model",[10],−2.4
same,"Upper limits of predicted 90% CIs for ΔQTcF, sensitivity analysis",[10],< 1.5 ms
